Laboratory results as given in ChEMBL document CHEMBL4725292 (J Med Chem, 2020).

Tests used:
Blood [1] = assay: Inhibition of LPS-induced TNFalpha production in human whole blood preincubated for 30 mins followed by LPS addition and measured after overnight incubation by mesoscale assay; format: functional, tissue-based
THP-1 = assay: Antiproliferative activity against human THP-1 cells after 72 hrs by cell titer glo assay; format: functional, cell-based; settings: THP-1, 72 h
Blood [2] = assay: Inhibition of LPS-induced IL6 production in human whole blood preincubated for 30 mins followed by LPS addition and measured after overnight incubation by mesoscale assay; format: functional, tissue-based
MV4-11 = assay: Antiproliferative activity against human MV4-11 cells after 72 hrs by cell titer glo assay; format: functional, cell-based; settings: MV4-11, 72 h
HL-60 = assay: Antiproliferative activity against human HL-60 cells after 72 hrs by cell titer glo assay; format: functional, cell-based; settings: HL-60, 72 h
Blood [3] = assay: Inhibition of LPS-induced MCP1 production in human whole blood preincubated for 30 mins followed by LPS addition and measured after overnight incubation by mesoscale assay; format: functional, tissue-based
[4] = biological target: Bromodomain-containing protein 4 (Homo sapiens, UniProt O60885, Y97A); assay: Displacement of Alexa Fluor 647 labelled ligand from His6-tagged BRD4 BD2 (1 to 477 residues)/BD1 Y97A mutant (unknown origin) after 30 mins by TR-FRET assay
[5] = Inhibition of LPS-induced MCP1 production in PBMC (unknown origin); format: functional, tissue-based
[6] = Permeability of the compound in pH 7.4 phosphate buffer measured after 3 hrs by artificial membrane permeability assay based HPLC analysis; format: ADME; settings: for Papp at 3 h: PAMPA, pH 7.4, read-out: permeability
[7] = Lipophilicity, logD of the compound at pH 7.4 by chromatographic method; format: physicochemical; settings: buffer
[8] = biological target: Bromodomain-containing protein 4 (Homo sapiens, UniProt O60885, Y390A); assay: Displacement of Alexa Fluor 647 labelled ligand from His6-thr-tagged BRD4 BD1 (1 to 477 residues)/BD2 Y390A mutant (unknown origin) after 30 mins by TR-FRET assay
[9] = Selectivity index, […] for His6-thr-tagged BRD4 BD1 (1 to 477 residues)/BD2 Y390A mutant (unknown origin) to pIC50 for LPS-induced MCP1 production in PBMC (unknown origin)
[10] = biological target: T1, ATPase family AAA domain-containing protein 2 (Homo sapiens, UniProt Q6PL18); assay: Inhibition of ATAD2 (unknown origin) by TR-FRET assay
T1 sequence (Q6PL18 whole entry): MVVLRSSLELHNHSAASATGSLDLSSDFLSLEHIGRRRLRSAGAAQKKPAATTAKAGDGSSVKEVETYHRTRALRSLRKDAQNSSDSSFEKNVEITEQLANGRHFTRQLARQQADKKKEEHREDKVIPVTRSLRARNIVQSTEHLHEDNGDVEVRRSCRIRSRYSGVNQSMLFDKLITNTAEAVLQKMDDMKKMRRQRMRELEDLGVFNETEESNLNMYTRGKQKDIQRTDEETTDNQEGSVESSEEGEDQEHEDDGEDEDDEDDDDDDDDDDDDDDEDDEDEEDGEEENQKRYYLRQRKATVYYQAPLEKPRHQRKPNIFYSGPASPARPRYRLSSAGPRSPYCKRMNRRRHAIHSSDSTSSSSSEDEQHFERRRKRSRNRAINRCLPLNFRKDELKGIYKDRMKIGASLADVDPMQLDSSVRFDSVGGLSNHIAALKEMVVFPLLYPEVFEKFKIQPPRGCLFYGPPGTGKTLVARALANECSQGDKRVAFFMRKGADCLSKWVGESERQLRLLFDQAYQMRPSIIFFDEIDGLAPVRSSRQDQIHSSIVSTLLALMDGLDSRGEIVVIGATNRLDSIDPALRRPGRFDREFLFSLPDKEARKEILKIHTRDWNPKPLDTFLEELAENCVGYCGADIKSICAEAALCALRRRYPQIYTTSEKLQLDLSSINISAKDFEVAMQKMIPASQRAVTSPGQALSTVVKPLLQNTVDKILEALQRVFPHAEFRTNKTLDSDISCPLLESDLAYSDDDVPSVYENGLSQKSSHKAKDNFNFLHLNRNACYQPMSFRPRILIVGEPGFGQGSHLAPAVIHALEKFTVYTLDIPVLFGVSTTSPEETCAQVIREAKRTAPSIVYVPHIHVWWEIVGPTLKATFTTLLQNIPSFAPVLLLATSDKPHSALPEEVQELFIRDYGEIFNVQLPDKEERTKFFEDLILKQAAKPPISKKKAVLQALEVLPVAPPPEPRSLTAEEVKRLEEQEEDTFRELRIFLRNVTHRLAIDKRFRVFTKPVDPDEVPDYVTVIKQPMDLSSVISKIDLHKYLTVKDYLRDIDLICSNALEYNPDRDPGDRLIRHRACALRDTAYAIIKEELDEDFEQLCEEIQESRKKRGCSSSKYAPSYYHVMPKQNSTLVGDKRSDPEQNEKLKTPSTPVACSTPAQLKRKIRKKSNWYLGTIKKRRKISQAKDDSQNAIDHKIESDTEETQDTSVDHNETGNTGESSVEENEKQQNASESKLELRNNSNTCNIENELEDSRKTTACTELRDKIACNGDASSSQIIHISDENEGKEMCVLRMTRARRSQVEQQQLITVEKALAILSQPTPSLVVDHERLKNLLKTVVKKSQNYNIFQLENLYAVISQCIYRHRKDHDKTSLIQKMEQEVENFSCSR

[11] = system: Bromodomain-containing protein 4 (Homo sapiens), O60885 [UNDEFINED MUTATION]; assay: Selectivity index, […] for His6-thr-tagged BRD4 BD1 (1 to 477 residues)/BD2 Y390A mutant (unknown origin) to pIC50 for His6-tagged BRD4 BD2 (1 to 477 residues)/BD1 Y97A mutant (unknown origin)

SMILES | IC50 (Blood [1]) | IC50 (THP-1) | IC50 (Blood [2]) | IC50 (MV4-11) | IC50 (HL-60) | IC50 (Blood [3]) | IC50 [4] | IC50 [5] | permeability ([6]; artificial membrane, pH 7.4, 3 h, 3 h) | chromatographic logD [7] | IC50 [8] | Selectivity Index [9] | Papp at 3 h [6] | IC50 [10] | Selectivity Index [11]
COc1cc2c(cc1-c1c(C)noc1C)ncc1[nH]c(=O)n([C@H](C)c3ccccn3)c12 | 380 nM | 134 nM | 1030 nM | 127 nM | 195 nM | 300 nM | – | – | – | – | – | – | – | – | –
Cc1cc2c(-c3ccco3)cnc(N[C@@H]3CCNC[C@H]3C(=O)NC3CCCCC3)c2[nH]c1=O | – | – | – | – | – | – | 12.6 µM | 200 nM | 19 nm/s | 3.12 | 20 nM | 10 | – | – | –
Cc1cc2ccnc(N[C@@H]3CCNC[C@H]3C(=O)NC3CCCCC3)c2[nH]c1=O (racemic) | – | – | – | – | – | – | > 50.1 µM | – | – | 2.03 | 794 nM | – | < 0.3 ×10⁻⁶ cm/s | > 39.8 µM | > 60
Cc1cc2c(-c3ccco3)ccc(N[C@@H]3CCNC[C@H]3C(=O)NC3CCCCC3)c2[nH]c1=O (racemic) | – | – | – | – | – | – | 15.8 µM | – | – | 3.66 | 316 nM | – | < 1 ×10⁻⁶ cm/s | – | 50
